These are literature values, as cited in patent US20030027804A1, “Therapeutic combinations for the treatment of hormone deficiencies” (priority 2001, published 2003).

The conditions of series [1]: in vivo.
For series [2] the following is noted: oral, sublingual or buccal 17-alkylated androgens.
Series [3] has as its system sex hormone binding globulin (SHBG), albumin. As to conditions: circulating in the blood.
Series [4] deals with sex hormone binding globulin (SHBG), albumin (Homo sapiens, UniProt P02768). The settings on record: in men.
Chain of sex hormone binding globulin (SHBG), albumin (Homo sapiens, UniProt P02768) (P02768 25-609): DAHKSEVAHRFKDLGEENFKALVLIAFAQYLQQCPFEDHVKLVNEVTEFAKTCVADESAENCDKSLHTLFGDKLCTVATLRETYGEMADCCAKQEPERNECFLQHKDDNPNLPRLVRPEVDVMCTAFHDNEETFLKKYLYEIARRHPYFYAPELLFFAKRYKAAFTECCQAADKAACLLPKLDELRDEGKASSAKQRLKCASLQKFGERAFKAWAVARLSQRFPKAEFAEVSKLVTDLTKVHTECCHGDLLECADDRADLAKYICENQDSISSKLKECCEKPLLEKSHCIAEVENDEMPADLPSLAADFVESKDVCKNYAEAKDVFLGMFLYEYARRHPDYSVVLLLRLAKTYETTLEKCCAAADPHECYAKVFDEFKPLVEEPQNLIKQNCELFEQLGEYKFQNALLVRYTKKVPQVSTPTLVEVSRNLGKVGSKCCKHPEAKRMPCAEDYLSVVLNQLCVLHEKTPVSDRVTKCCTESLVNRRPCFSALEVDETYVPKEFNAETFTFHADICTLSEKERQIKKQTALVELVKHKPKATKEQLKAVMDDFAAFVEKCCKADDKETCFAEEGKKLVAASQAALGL
Series [5] has as its target T1, sex hormone binding globulin (SHBG), albumin (Homo sapiens, UniProt P04278).
T1 sequence (P04278 30-402): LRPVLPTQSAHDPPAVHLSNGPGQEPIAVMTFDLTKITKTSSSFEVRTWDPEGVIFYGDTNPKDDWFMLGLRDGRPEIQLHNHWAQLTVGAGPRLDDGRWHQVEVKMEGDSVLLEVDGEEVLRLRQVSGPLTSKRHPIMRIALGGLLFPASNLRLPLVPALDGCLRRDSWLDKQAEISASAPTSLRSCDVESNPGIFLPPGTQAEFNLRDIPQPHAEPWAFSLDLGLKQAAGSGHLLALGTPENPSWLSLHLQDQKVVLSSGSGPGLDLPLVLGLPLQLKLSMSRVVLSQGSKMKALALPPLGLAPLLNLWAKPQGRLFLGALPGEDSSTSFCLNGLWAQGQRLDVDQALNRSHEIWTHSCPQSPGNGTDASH
As to conditions: in men.

The conditions of series [6]: oral.

With `C[C@]12CC[C@@H]3c4ccc(O)cc4CC[C@H]3[C@@H]1CC[C@@H]2O` [estradiol, 1,3,5(10)-Estratriene-3,17 beta-diol], the “serum levels of estradiol required for clinical efficacy” value in series [1] is 40 to 60 pg/mL.

As to `C[C@]1(O)CC[C@H]2[C@@H]3CCC4=CC(=O)CC[C@]4(C)[C@@]3(F)[C@@H](O)C[C@@]21C` [fluoxymesterone], the liver toxicity result in series [2] is on record as “associated with liver toxicity”. `C[C@]12CCC(=O)C=C1CC[C@@H]1[C@@H]2CC[C@@]2(C)[C@H]1CC[C@]2(C)O` [methyl testosterone, 17 alpha-methyl-testosterone]: the liver toxicity result in series [2] was “associated with liver toxicity”. `C[C@]12CC[C@H]3[C@@H](CCC4=CC(=O)CC[C@@]43C)[C@@H]1CC[C@@H]2O` [testosterone]: in series [3], the “testosterone in blood bound to protein” value is recorded as 98%. The “share bound weakly to albumin” value in series [4] was 60%. Besides, the “share of binding to high-affinity SHBG” value in series [5] is given as “approximately 40%”. Further, in series [6], the “orally administered testosterone cleared by the liver in the first pass” value is listed as “about 44%”.
